{"source": "patent US10435388B2", "about": "“Selective inhibitors of clinically important mutants of the EGFR tyrosine kinase” (CS PHARMATECH LIMITED, priority 2016, dated 2019)", "key": {"INSR": {"molecular_target": "T1, INSR (Homo sapiens, UniProt P06213)", "T1 construct": "purchased CARNA BIOSCIENCE 08-142", "T1 sequence (P06213 989-1382 limits assumed)": "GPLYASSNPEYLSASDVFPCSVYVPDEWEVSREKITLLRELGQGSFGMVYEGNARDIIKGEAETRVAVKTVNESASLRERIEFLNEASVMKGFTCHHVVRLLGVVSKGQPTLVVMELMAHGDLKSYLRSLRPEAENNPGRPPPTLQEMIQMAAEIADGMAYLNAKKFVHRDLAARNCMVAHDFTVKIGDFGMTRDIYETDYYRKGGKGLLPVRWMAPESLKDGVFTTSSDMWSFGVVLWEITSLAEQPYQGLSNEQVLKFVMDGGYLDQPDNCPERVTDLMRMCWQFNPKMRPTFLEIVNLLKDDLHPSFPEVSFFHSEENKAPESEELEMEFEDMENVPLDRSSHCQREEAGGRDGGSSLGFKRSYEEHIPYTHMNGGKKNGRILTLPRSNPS", "assay": "INSR inhibition assay (Caliper EZ Reader)", "assay_type": "biochemical", "settings": "enzyme assay"}, "[1]": {"test_system": "p-EGFR in PC9 cells (Exon 19 deletion EGFR)", "assay": "Exon19 deletion EGFR (activating single mutant) PC-9 cellular autophosphorylation assay", "assay_type": "cell-based, human", "settings": "2 h treatment, ELISA"}}, "note": "Where “and” joins values, the source holds several entries; their conditions need not be identical. Identical values can stand only once."}
{"smiles": "C=CC(=O)Nc1cc(Nc2nccc(-c3c[nH]c4ccccc34)n2)c(OC)cc1N(C)CCN(C)C", "note": "[AZD-5104]", "values": [{"measurement": "IC50", "setting": "INSR", "value": "49.5 nM and 72.2 nM"}, {"measurement": "IC50", "setting": "[1]", "value": "2.91 nM and 2.4 nM"}]}
